Measurements taken from patent publication EP0616805A1, “Use of acyl L-carnitine gamma-hydroxybutyrate for the treatment of alcoholism” (Sigma-Tau Industrie Farmaceutiche Riunite S.p.A., priority 1993, dated 1994).

Experiments:
Type in all cases: in vivo, Wistar male rats
[1] = test system: alcohol-dependent rats; assay: modified Vogel test (licks at shock-linked drinking vessel) in alcohol-dependent rats; details: 100 mg/kg intraperitoneal at ethanol suspension; rats given 10% ethanol for 6 months; 10 min. exposure period; saline group 38.5 ± 8.5
Procedure: Wistar male rats (housed in groups of 5 per cage) were used, kept in conditions of constant light-dark alternation at 21°C and fed with standard laboratory feed. The animals were chronically administered 10% ethanol ad lib. for 6 months.
To assess the activity, if any, of VCGB on the anxiety component involved in the compulsive act of searching for alcohol, a modified version of the Vogel test was used as described by Keppler D. et al. in Exp. Mol. Path. 9, 279 (1968).
Prior to the start of the experiment the animals were deprived of water for 48 h. At the time of ethanol treatment suspension, the animals were divided into 4 groups who were given the following intraperitoneal administrations: the first group (A) received saline solution (15 ml/kg), the second group (B) VCGB (100 mg/kg), the third group (C) GHB (100 mg/kg) and the fourth group (D) IVC ([…]).
On the day of the test, the animals were provided with two drinking vessels, one containing water and the other a mixture of water and ethanol (90:10 v/v) in bottles, the metal spouts of which were connected up to a source of electricity: after every 5 licks at the drinking vessel an electric shock (1 mA) was delivered for 10 min. which obliged the animal to withdraw, overcoming its desire to drink the water-alcohol solution. Refusal of the animals to drink the water-alcohol solution, confining their attention only to the vessel containing water alone, was taken as an indication of efficacy. In evaluating the results, the numbers of licks were compared for treated animals versus controls over the 10 min. exposure period.

[2] = test system: rats chronically administered 10% ethanol; assay: alcohol withdrawal syndrome: tremors by the Hunt-Majchrowicz method; details: 100 mg/kg intraperitoneal, eight hours after suspension of ethanol; for number of tremors, 30 min: saline group 6 ± 2.5; for number of tremors, 60 min: saline group 8 ± 1.5; for number of tremors, 90 min: saline group 7 ± 1.5; for number of tremors, 120 min: saline group 8 ± 2.5
Procedure: The experiment was performed in Wistar male rats housed in groups of 5 per cage under conditions of constant light-dark alternation at 21°C and fed with standard laboratory feed. The animals were chronically administered 10% ethanol ad lib. for 6 months.
Eight hours after suspension of ethanol administration, the animals were divided into 4 groups of 5 rats each.
The first group (A) was administered saline solution intraperitoneally (15 ml/kg), the second group (B) was given VCGB (100 mg/kg), again intraperitoneally, the third group (C) received GHB (100 mg/kg), while the fourth group (D) was given IVC (100 mg/kg). For the purposes of assessing the effects induced by the above-mentioned treatments on occurrence of alcohol withdrawal syndrome, tremors were measured in the rat, where, as in man, they are the most characteristic sign of withdrawal syndrome. Evaluation of the number of tremors was done using the method described by Hunt and Majchrowicz (see Hunt W.A. and Majchrovicz E., Journal of Pharmacology and Experimental Therapeutics, 213, 9-12 (1980). The results are given here below in Table 2. TABLE 2.

[3] = test system: rats chronically treated with alcohol; assay: alcohol withdrawal syndrome: convulsions on sound stimulation (electric bell, 100 dB, 1 min); details: 100 mg/kg intraperitoneal, eight hours after suspension of ethanol; test one hour after treatment; saline group 9/10
Procedure: The experiment was performed in Wistar male rats housed in groups of 5 per cage under constant light-dark alternation at 21°C and fed with standard laboratory feed. The animals were chronically administered 10% ethanol ad lib. for 6 months.
Eight hours after suspension of ethanol administration the animals were divided into 4 groups of 10 rats each. The first group (A) were administered saline solution (15 ml/kg) intraperitoneally, the second group (B) VCGB (100 mg/kg), again intraperitoneally, the third group (C) GHB (100 mg/kg) and the last group (D) IVC (100 mg/kg). For the purposes of evaluating the effects of the treatment on occurrence of alcohol withdrawal syndrome, the rats' susceptibility to onset of behavioral reactions (convulsions) due to emission of sound for 1 min by an electric bell (100 dB) was observed. The experiment was performed in all groups of rats one hour after treatment, and the results are given here below in Table 3.

[4] = test system: lipoperoxidation in the CNS of rats; assay: lipoperoxidation in the CNS: cerebral malonaldehyde (MDA) after chronic ethanol treatment; details: brain homogenate; 10% ethanol for two months, then 100 mg/kg single intraperitoneal dose; Control 0.543 ± 0.19, Ethanol 1.12 ± 0.13
Procedure: This study was conducted in order to assess what variations in malonaldehyde (MDA) occur following VCGB administration, MDA being a reliable and quantifiable index of the vulnerability of the central nervous system to damage due to free radicals as a result of the detrimental effects of ethanol.
The experiment was conducted in Wistar male rats housed in groups of 5 per cage under constant light-dark alternation at 21°C and fed with standard laboratory feed. Two groups of rats, each comprising 5 animals, were administered 10% ethanol in water throughout the treatment period. A third group of animals was kept on a standard laboratory diet without receiving any treatment. After two months of ethanol treatment the animals in the first group were administered VCGB in aqueous solution (100 mg/kg) in a single intraperitoneal dose. A few days after treatment, the animals were sacrificed and the brains promptly removed. MDA was measured using a modified micromethod described by Slater and Sawyer (Slater T. F. and Sawyer B. C., 1971, J. Biochem. Tokyo 8: 2180). […] The samples were placed in boiling water for 10 min, and after cooling absorbance was determined at 532 nm using a spectrophotometer. […] Proteins were measured by the Smith method (Smith et al., 1985, Analyt. Biochem. 27: 502), using bicinchoninic acid as reagent. […]

| Structure (SMILES) | Number of licks [1] | number of tremors, 30 min [2] | number of tremors, 60 min [2] | number of tremors, 90 min [2] | number of tremors, 120 min [2] | Animals with convulsions/animals treated [3] | MDA [4] [nmol/mg protein] |
| --- | --- | --- | --- | --- | --- | --- | --- |
| O=C(O)CCCO [GHB, gamma-hydroxybutyric acid] | 11 ± 2.4 ▲ | 2 ± 0.5 | 1 ± 0.5 | 2 ± 1 | 3 ± 1 | 4/10 | – |
| CC(C)CC(=O)O[C@H](CC(=O)[O-])C[N+](C)(C)C [IVC, isovaleryl L-carnitine] | 35.2 ± 7.4 | 4 ± 2 | 5 ± 2 | 5 ± 1.5 | 6 ±2 | 6/10 | – |
| CC(C)CC(=O)O[C@H](CC(=O)OCCCC(=O)[O-])C[N+](C)(C)C [VCGB, isovaleryl L-carnitine gamma-hydroxybutyrate] | 5.6 ± 1.14 | 0 ± 0.25 | 0 ± 0 | 0 ± 0.75 | 0 ± 0.25 | 1/10 | 0.497 ± 0.15 |
